The test system of series [1] is S. aureus ATCC 25923. Put plainly: MIC determination, broth micro-dilution (CAMHB). Conditions: Table 1; 37° C., 24 h. The class given is cell-based, Staphylococcus aureus. How it is done:
(§1) Four strains of bacteria were chosen for the susceptibility tests: S. aureus ATCC 25923; MRSA (a wild clinical strain from the JCU culture collection); E. coli ATCC 25922 and P. aeruginosa ATCC 27853. The bacteria were grown on Mueller Hinton agar (OXOID, cat. No. CM0337) and suspended in growth medium cation-adjusted Mueller Hinton broth (CAMHB, OXOID, cat. No. CM0405). The MIC of each complex was determined in duplicate by standard micro-dilution methodology (British Society for Antimicrobial Chemotherapy Working Party, J. Antimicrob. Chemother., 1991, 27(suppl. D), 22) using gentamicin as the positive control. The ruthenium complexes were dissolved in CAMHB to a stock solution of […] and two-fold diluted in the broth in 96-well plates in a final volume of […] in each well. The same volume […] of bacterial suspension was added in each well making a concentration range of 0.25 mg ml^−1 to 128 mg ml^−1 for each complex. The plates were incubated at 37° C. for 24 h. The results are summarised in Table 1 below, using the following abbreviations: • Rubpm=ΔΔ-[{Ru(phen)2}2(μ-2,2′-bipyrimidine)]Cl4 • Rudppm=ΔΔ-[{Ru(phen)2}2(μ-4,6-bis(2-pyridyl)pyrimidine)]Cl4 • Rubb7trinuclear=Δ*Δ*-[{Ru*(phen)2}(μ-bb7){Ru(phen)}(μ-bb7){Ru*(phen)2}]Cl6 (only the two terminal metal centres are chiral, the two central metal centres are racemic) • Rubb7tetranuclear=Δ*Δ*-[{Ru*(phen)2}(μ-bb7) {Ru(phen)}(μ-bb7){Ru(phen)}(μ-bb7)-{Ru*(phen)2}]Cl8 (only the two terminal metal centres are chiral, the two central metal centres are racemic)
(§2) Further MIC assays and Minimum Bactericidal Concentration (MBC) assays were conducted against Gram-positive and Gram-negative bacterial strains using symmetric and non-symmetric, inert and labile complexes.

In series [2] the test system is P. aeruginosa ATCC 27853. The experiment in a line: MIC determination, broth micro-dilution (CAMHB). The series is classed as cell-based, Pseudomonas aeruginosa. Conditions: Table 1; 37° C., 24 h. The protocol: as §1, §2
Series [3] deals with E. coli ATCC 25922. Put plainly: MIC determination, broth micro-dilution (CAMHB). The series is classed as cell-based, Escherichia coli. Conditions: Table 1; 37° C., 24 h. The protocol: as §1, §2
For series [4], the system named is MRSA (a wild clinical strain from the JCU culture collection). The experiment in a line: MIC determination, broth micro-dilution (CAMHB). The class given is cell-based, methicillin-resistant S. aureus. Conditions: Table 1; 37° C., 24 h. How it is done:
as §1, §2

The format of series [5] is physicochemical. Conditions: pH 7.4. How it is done: The primary difference between the members of the Rubbn family of complexes is the number of methylene groups in the flexible linking chain. […] Lipophilicity is a significant factor affecting the biological activity of most therapeutic compounds, as it relates to the capacity of the drug to penetrate through the cell membrane. The standard octanol-water partition coefficient (logP) was determined for the Rubbn series (F. Lombardo, B. Faller, M. Shalaeva, I. Tetko and S. Tilton, Methods and Principles in Medicinal Chemistry, 2008, 37, 407) parent model mononuclear species ([Ru(phen)2(Me2bpy)]^2+) and the trinuclear and tetranuclear complexes.
The partition coefficients (logP) were measured using the shake flask technique: each ruthenium complex (at both 0.05 and 0.1 mM) was dissolved in the water phase (0.2 M Na2HPO4—NaH2PO4 buffer, pH=7.4) and an equivalent volume of n-octanol was added.
The two phases were mutually saturated by shaking overnight at ambient temperature and then were allowed to separate on standing. The concentration of the metal complex in each phase was determined spectrophotometrically at l=450 nm.

As to ΔΔ-[{Ru(phen)2}2(μ-bbN7)] [ΔΔ-RubbN7], the “MIC S. aureus” value in series [1] was greater than 128 µg/mL. Also, in series [2], the “MIC P. aeruginosa” value was greater than 128 µg/mL. In series [3], the “MIC E. coli” value is greater than 128 µg/mL. In series [4], the “MIC MRSA” value was greater than 128 µg/mL.
Turning to “Δ-[Ru(phen)2(Me2bipy)](PF6)2 [[Ru(phen)2(Me2bpy)]^2+, reference compound]”, the “MIC S. aureus” value in series [1] was found to be 128 µg/mL. Also, the “MIC P. aeruginosa” value in series [2] is greater than 128 µg/mL. Also, the “MIC E. coli” value in series [3] was greater than 128 µg/mL. This molecule also yielded a logP in series [5] of −2.9. Further, in series [4], the “MIC MRSA” value is greater than 128 µg/mL.
Regarding `[Ru+2].c1cnc2c(c1)ccc1cccnc12.c1cnc2c(c1)ccc1cccnc12.c1cnc2c(c1)ccc1cccnc12` [[Ru(phen)3]^2+, reference compound], the “MIC S. aureus” value in series [1] is greater than 128 µg/mL. In addition, the “MIC P. aeruginosa” value in series [2] is greater than 128 µg/mL. For the same molecule, the “MIC E. coli” value in series [3] is greater than 128 µg/mL. Besides, the “MIC MRSA” value in series [4] is greater than 128 µg/mL.
On to [{Ru(phen)2}2(μ-bb5)](PF6)4 [Rubb5], for which the logP in series [5] is on record as −3.5.
“ΔΔ-[{Ru(phen)2}2(μ-bbN12)]Cl4 [ΔΔ-RubbN12]”: in series [1], the “MIC S. aureus” value turned out to be 128 µg/mL. Moreover, the “MIC P. aeruginosa” value in series [2] was greater than 128 µg/mL. The “MIC E. coli” value in series [3] came out at 128 µg/mL. The “MIC MRSA” value in series [4] worked out at 128 µg/mL.
For `Cc1cc[n+]2c(c1)-c1cc(CCCCCCCCCCCCCCc3cc[n+]4c(c3)-c3cc(C)cc[n+]3[Ru-4]435([n+]4cccc6ccc7ccc[n+]3c7c64)[n+]3cccc4ccc6ccc[n+]5c6c43)cc[n+]1[Ru-4]213([n+]2cccc4ccc5ccc[n+]1c5c42)[n+]1cccc2ccc4ccc[n+]3c4c21.[Cl-].[Cl-].[Cl-].[Cl-]` [Rubb14, [{Ru(phen)2}2(μ-bb14)]Cl4], the logP in series [5] is on record as −2.3.
In the case of `Cc1cnc2c(ccc3c(C)c(C)cnc32)c1C.Cc1cnc2c(ccc3c(C)c(C)cnc32)c1C.Cc1cnc2c(ccc3c(C)c(C)cnc32)c1C.[Ru+2]` [[Ru(Me4phen)3]^2+, reference compound], in series [1], the “MIC S. aureus” value came out at 0.5 µg/mL. For the same molecule, the “MIC P. aeruginosa” value in series [2] was 32 µg/mL. Also, the “MIC E. coli” value in series [3] amounted to 8 µg/mL. Further, the “MIC MRSA” value in series [4] came to 4 µg/mL.
Take `Cc1cc[n+]2c(c1)-c1cc(CCc3cc[n+]4c(c3)-c3cc(C)cc[n+]3[Ru-4]435([n+]4cccc6ccc7ccc[n+]3c7c64)[n+]3cccc4ccc6ccc[n+]5c6c43)cc[n+]1[Ru-4]213([n+]2cccc4ccc5ccc[n+]1c5c42)[n+]1cccc2ccc4ccc[n+]3c4c21` [ΔΔ-Rubb2, [{Ru(phen)2}2(μ-bb2)]^4+]: in series [3], the “MIC E. coli” value was greater than 128 µg/mL.
Regarding “ΔΔ-[{Ru(phen)2}2(μ-bb14)](PF6)4 [ΔΔ-Rubb14]”, the “MIC S. aureus” value in series [1] worked out at 1 µg/mL. The “MIC P. aeruginosa” value in series [2] is 8 µg/mL. The “MIC E. coli” value in series [3] was determined as 4 µg/mL. Moreover, in series [4], the “MIC MRSA” value came out at 1 µg/mL.
Molecule `Cc1cc[n+]2c(c1)-c1cc(CCc3cc[n+]4c(c3)-c3cc(C)cc[n+]3[Ru-4]435([n+]4cccc6ccc7ccc[n+]3c7c64)[n+]3cccc4ccc6ccc[n+]5c6c43)cc[n+]1[Ru-4]213([n+]2cccc4ccc5ccc[n+]1c5c42)[n+]1cccc2ccc4ccc[n+]3c4c21` [Rubb2, [{Ru(phen)2}2(μ-bb2)]^4+] showed a logP in series [5] of −3.6.
Consider `Cc1ccnc(-c2cc(CCCCCCCCCCc3ccnc(-c4cc(C)ccn4)c3)ccn2)c1.F[P-](F)(F)(F)(F)F.F[P-](F)(F)(F)(F)F.F[P-](F)(F)(F)(F)F.F[P-](F)(F)(F)(F)F.[Ru+2].[Ru+2].c1cnc2c(c1)ccc1cccnc12.c1cnc2c(c1)ccc1cccnc12.c1cnc2c(c1)ccc1cccnc12.c1cnc2c(c1)ccc1cccnc12` [ΛΛ-Rubb10, [{Ru(phen)2}2(μ-bb10)](PF6)4], for which the “MIC S. aureus” value in series [1] amounted to 8 µg/mL. Besides, the “MIC P. aeruginosa” value in series [2] worked out at 32 µg/mL. Moreover, the “MIC E. coli” value in series [3] turned out to be 4 µg/mL. Moreover, in series [4], the “MIC MRSA” value is 8 µg/mL.
In the case of “ΔΔ-[{Ru(phen)2}2(μ-bbO7)](PF6)4 [ΔΔ-RubbO7]”, the “MIC S. aureus” value in series [1] amounted to 128 µg/mL. In addition, the “MIC P. aeruginosa” value in series [2] is greater than 128 µg/mL. The “MIC E. coli” value in series [3] amounted to 128 µg/mL. For the same molecule, the “MIC MRSA” value in series [4] was determined as 128 µg/mL.
Turning to `Cc1cc[n+]2c(c1)-c1cc(CCCCCCCc3cc[n+]4c(c3)-c3cc(C)cc[n+]3[Ru-4]435([n+]4cccc6ccc7ccc[n+]3c7c64)[n+]3cccc4ccc6ccc[n+]5c6c43)cc[n+]1[Ru-4]213([n+]2cccc4ccc5ccc[n+]1c5c42)[n+]1cccc2ccc4ccc[n+]3c4c21.F[P-](F)(F)(F)(F)F.F[P-](F)(F)(F)(F)F.F[P-](F)(F)(F)(F)F.F[P-](F)(F)(F)(F)F` [ΛΛ-Rubb7, [{Ru(phen)2}2(μ-bb7)](PF6)4], in series [1], the “MIC S. aureus” value is 64 µg/mL. In addition, the “MIC P. aeruginosa” value in series [2] was 64 µg/mL. For the same molecule, the “MIC E. coli” value in series [3] was determined as 16 µg/mL. The “MIC MRSA” value in series [4] was found to be 32 µg/mL.
Take [{Ru(phen)2}2(μ-bb5)](PF6)4 [ΛΛ-Rubb5]: the “MIC S. aureus” value in series [1] worked out at 128 µg/mL. Further, in series [2], the “MIC P. aeruginosa” value came to 128 µg/mL. Moreover, the “MIC E. coli” value in series [3] was 64 µg/mL. Further, in series [4], the “MIC MRSA” value was found to be 128 µg/mL.
Take [Ru(Me2phen)3]^2+ [reference compound]: the “MIC S. aureus” value in series [1] turned out to be 8 µg/mL. In addition, the “MIC P. aeruginosa” value in series [2] was greater than 128 µg/mL. In series [3], the “MIC E. coli” value came out at 128 µg/mL. Moreover, the “MIC MRSA” value in series [4] came out at 128 µg/mL.
As for `Cc1ccnc(-c2cc(CCCCCCCCCCCCCCCCc3ccnc(-c4cc(C)ccn4)c3)ccn2)c1.[Cl-].[Cl-].[Cl-].[Cl-].[Ru+2].[Ru+2].c1cnc2c(c1)ccc1cccnc12.c1cnc2c(c1)ccc1cccnc12.c1cnc2c(c1)ccc1cccnc12.c1cnc2c(c1)ccc1cccnc12` [ΛΛ-Rubb16, [{Ru(phen)2}2(μ-bb16)]Cl4], the “MIC S. aureus” value in series [1] is 1 µg/mL. Moreover, the “MIC P. aeruginosa” value in series [2] was determined as 8 µg/mL. The “MIC E. coli” value in series [3] came out at 4 µg/mL. The “MIC MRSA” value in series [4] turned out to be 1 µg/mL.
In the case of [{Ru(phen)2}2(μ-bb5)](PF6)4 [ΔΔ-Rubb5], the “MIC S. aureus” value in series [1] was determined as 128 µg/mL. The “MIC P. aeruginosa” value in series [2] was greater than 128 µg/mL. The “MIC E. coli” value in series [3] amounted to 128 µg/mL. In addition, the “MIC MRSA” value in series [4] was determined as 128 µg/mL.
As for `Cc1cc[n+]2c(c1)-c1cc(CCc3cc[n+]4c(c3)-c3cc(C)cc[n+]3[Ru-4]435([n+]4cccc6ccc7ccc[n+]3c7c64)[n+]3cccc4ccc6ccc[n+]5c6c43)cc[n+]1[Ru-4]213([n+]2cccc4ccc5ccc[n+]1c5c42)[n+]1cccc2ccc4ccc[n+]3c4c21` [ΛΛ-Rubb2, [{Ru(phen)2}2(μ-bb2)]^4+], in series [1], the “MIC S. aureus” value is greater than 128 µg/mL. Also, in series [2], the “MIC P. aeruginosa” value was greater than 128 µg/mL. Also, in series [4], the “MIC MRSA” value was greater than 128 µg/mL.
Take `Cc1cc[n+]2c(c1)-c1cc(CCCCCCCCCCCCCCc3cc[n+]4c(c3)-c3cc(C)cc[n+]3[Ru-4]435([n+]4cccc6ccc7ccc[n+]3c7c64)[n+]3cccc4ccc6ccc[n+]5c6c43)cc[n+]1[Ru-4]213([n+]2cccc4ccc5ccc[n+]1c5c42)[n+]1cccc2ccc4ccc[n+]3c4c21.[Cl-].[Cl-].[Cl-].[Cl-]` [ΛΛ-Rubb14, [{Ru(phen)2}2(μ-bb14)]Cl4]: the “MIC S. aureus” value in series [1] was determined as 1 µg/mL. Besides, the “MIC P. aeruginosa” value in series [2] was 8 µg/mL. In addition, the “MIC E. coli” value in series [3] amounted to 2 µg/mL. For the same molecule, the “MIC MRSA” value in series [4] came to 1 µg/mL.
In series [5], `Cc1ccnc(-c2cc(CCCCCCCCCCc3ccnc(-c4cc(C)ccn4)c3)ccn2)c1.F[P-](F)(F)(F)(F)F.F[P-](F)(F)(F)(F)F.F[P-](F)(F)(F)(F)F.F[P-](F)(F)(F)(F)F.[Ru+2].[Ru+2].c1cnc2c(c1)ccc1cccnc12.c1cnc2c(c1)ccc1cccnc12.c1cnc2c(c1)ccc1cccnc12.c1cnc2c(c1)ccc1cccnc12` [Rubb10, [{Ru(phen)2}2(μ-bb10)](PF6)4] came in with a logP of −3.3.
Regarding [{Ru(phen)2}2(μ-bb12)] [ΛΛ-Rubb12], the “MIC S. aureus” value in series [1] was found to be 2 µg/mL. Moreover, the “MIC P. aeruginosa” value in series [2] stood at 16 µg/mL. Further, the “MIC E. coli” value in series [3] came out at 2 µg/mL. Moreover, the “MIC MRSA” value in series [4] worked out at 2 µg/mL.

For the origin of these results see US20130172308A1, “ANTIMICROBIAL AGENTS” (John Grant COLLINS, priority 2011, published 2013).
